In US20100120789A1, “Compound” (priority 2005, published 2010):

Columns and labels:
[1] = biological target: Human 11β-HSD1 (Homo sapiens, UniProt P28845); assay: 11β-HSD1 HEK assay (whole HEK 293 cells stably transfected with HSD11B1, SPA); assay type: cell-based; design: expressed in transfected cells; host or cells: HEK 293; conditions: for inhibition at 10 µM: HEK293, read-out: % INHIBITION of Human 11 β-HSD1 at 10 μM (HEK); for IC50: HEK293, read-out: IC50 (nM) Inhibition of Human 11β-HSD1 (HEK293)
Human 11β-HSD1, sequence (P28845 whole entry): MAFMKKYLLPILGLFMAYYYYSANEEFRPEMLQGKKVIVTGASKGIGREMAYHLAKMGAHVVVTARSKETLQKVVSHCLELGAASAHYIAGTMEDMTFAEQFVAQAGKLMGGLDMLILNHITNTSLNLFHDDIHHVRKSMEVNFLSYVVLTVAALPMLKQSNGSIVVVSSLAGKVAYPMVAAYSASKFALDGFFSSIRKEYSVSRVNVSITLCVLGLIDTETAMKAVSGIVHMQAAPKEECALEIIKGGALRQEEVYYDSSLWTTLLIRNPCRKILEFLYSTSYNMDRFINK
Description: 11β-HSD1 HEK Assay Protocol (Cell Based Assay)
11β-HSD1 activity is measured in whole HEK 293 cells stably transfected with the HSD11B1 gene. Cells are incubated in 96-well microplates in the presence of tritiated substrate. Enzyme activity is determined by measuring the amount of tritated product by scintillation proximity assay (SPA). Assay plates contain internal high and low controls to allow calculation of percentage inhibition.
2. When the cells are 80% confluent the medium is removed from each well. 100 μl fresh, serum-free, medium containing ^3H-cortisone and test compound in 1% DMSO is added to each well*. Control wells are also dispensed.
3. The plate is incubated at […] for the required time period.
4. 50 μl of media is removed from each well and transferred to a microplate containing 100 μl of a pre-incubated mixture of anti-cortisol antibody and SPA bead. The mixture is incubated with gentle shaking until equilibrium is reached, before transferring to a scintillation counter to establish the enzyme activity in each sample.
10 μl of compound is dispensed into each well of a 96-well microplate in 10% DMSO at 100 μM concentration. 90 μl media containing ^3H-cortisone is added to each well. The compound/media/substrate mixture is then transferred to the assay plate containing the cells.

Structure (SMILES) | inhibition at 10 µM [1] | melting point | other results
CC(C)(C)CC(=O)NCc1cccs1 [compound 1639] | 20 to 60% |  | 
O=C(NCCc1cccs1)C12CC3CC(CC1C3)C2 [compound 1656] | > 60% |  | 
CC1(C(=O)NCCc2cccs2)CC1 [compound 1654] | 20 to 60% |  | 
CN(Cc1cccs1)C(=O)C(C)(C)C [compound 1695] | < 20% |  | 
O=C(NCCc1cccs1)C1(c2ccc(Cl)cc2)CCCC1 [compound 1651] | < 20% |  | 
O=C(CC12CC3CC(CC(C3)C1)C2)NCc1csc2ccccc12 [compound 1691] | 20 to 60% |  | 
O=C(COCc1cccs1)C12CC3CC(CC(C3)C1)C2 [compound 1692] | > 60% |  | 
O=C(NCc1csc2ccccc12)C12CC3CC(CC(C3)C1)C2 [compound 1689] | 20 to 60% |  | 
CC1(C(=O)NCc2cccs2)CC1 [compound 1641] | 20 to 60% |  | 
NC(=O)c1ccc(OCC(=O)C23CC4CC(CC(C4)C2)C3)cc1 [Compound 1] |  |  | IC50 [1]: 117 nM
Cc1ccc(Cc2noc(CC34CC5CC(CC(C5)C3)C4)n2)cc1 [compound 1664] | 20 to 60% |  | 
c1csc(Cc2noc(C34CC5CC(CC(C5)C3)C4)n2)c1 [compound 1687] | 20 to 60% |  | 
CN(Cc1cccs1)C(=O)C12CC3CC(CC(C3)C1)C2 [compound 1700] | > 60% |  | 
O=C(NCCc1cccs1)[C@H]1CC2C=CC1C2 (some centres unmarked) [compound 1707] | 20 to 60% |  | 
O=C(NC12CC3CC(CC(C3)C1)C2)OCc1cccs1 [compound 1711] | > 60% |  | 
O=C(NCc1cc2ccccc2s1)C12CC3CC(CC(C3)C1)C2 [compound 1688] | < 20% |  | 
Cc1c(Cl)cccc1S(=O)(=O)NC12CC3CC(CC(C3)C1)C2 [compound 1343] | 20 to 60% |  | 
CC12CC3CC(C)(C1)CC(C(=O)NCCc1cccs1)(C3)C2 [compound 1672] | > 60% |  | 
CCNC(=O)Cc1ccc(OCC(=O)C23CC4CC(CC(C4)C2)C3)cc1 [Compound 16] |  |  | IC50 [1]: 912 nM
O=S(=O)(NCC12CC3CC(CC(C3)C1)C2)c1ccc(-c2ccccc2)cc1 [compound 1371] | 20 to 60% |  | 
O=S(=O)(NC12CC3CC(CC(C3)C1)C2)c1cc(Cl)ccc1Cl [compound 1342] | 20 to 60% |  | 
NC(=O)Cc1ccc(OCC(=O)C23CC4CC(CC(C4)C2)C3)cc1 [Compound 15] |  |  | IC50 [1]: 204 nM

Structure (SMILES) | inhibition at 10 µM [1] | melting point | other results
CN(Cc1cccs1)C(=O)CC12CC3CC(CC(C3)C1)C2 [compound 1661] | > 60% |  | 
CNC(=O)Cc1ccc(OCC(=O)C23CC4CC(CC(C4)C2)C3)cc1 [Compound 13] |  |  | IC50 [1]: 94 nM
CN(Cc1cccs1)C(=O)C1(C)CC1 [compound 1697] | < 20% |  | 
CC(C)(C)C(=O)NCCc1cccs1 [compound 1674] | 20 to 60% |  | 
Cc1c(Cl)cccc1S(=O)(=O)NCC12CC3CC(CC(C3)C1)C2 [compound 1370] | 20 to 60% |  | 
Cc1ccc(Cc2noc(C34CC5CC(CC(C5)C3)C4)n2)cc1 [compound 1660] | 20 to 60% |  | 
CCNC(=O)c1cccc(OCC(=O)C23CC4CC(CC(C4)C2)C3)c1 [Compound 11] |  |  | IC50 [1]: 343 nM
CN(Cc1cccs1)C(=O)[C@@H]1CC2C=CC1C2 (some centres unmarked) [compound 1710] | > 60% |  | 
O=C(NCc1cccs1)C12CC3CC(CC(O)(C3)C1)C2 [compound 1675] | < 20% |  | 
CNC(=O)c1cccc(OCC(=O)C23CC4CC(CC(C4)C2)C3)c1 [Compound 10] |  |  | IC50 [1]: 68 nM
CN(Cc1cccnc1)C(=O)CC12CC3CC(CC(C3)C1)C2 [STX2409, 2-Adamantan-1-yl-N-methyl-N-pyridin-3-ylmethyl-acetamide] |  | 67 to 68.5 °C | 
COC(=O)c1cccc(OCC(=O)C23CC4CC(CC(C4)C2)C3)c1 |  | 84.5 °C | 
O=C(NCCc1cccs1)[C@@H]1CC2C=CC1C2 (stereo partly drawn) [STX1708, Bicyclo[2.2.1]hept-5-ene-2-carboxylic acid(2-thiophen-2-yl-ethyl)-amide (endo)] |  | 122 to 124 °C | 
COc1cc2c(cc1OCc1ccccc1)CCN(C(=O)CC13CC4CC(CC(C4)C1)C3)C2 |  | 133 to 135 °C | 
O=C(CC12CC3CC(CC(C3)C1)C2)N1CCN(c2ccccn2)CC1 |  | 134 to 136 °C | 
O=C(NCc1cccc([N+](=O)[O-])c1)C12CC3CC(CC(C3)C1)C2 [STX2411, Adamantane-1-carboxylic acid 3-nitro-benzylamide] |  | 145.5 to 147 °C | 
Cc1cccc(CN(C)C(=O)C23CC4CC(CC(C4)C2)C3)n1 [STX2134, Adamantane-1-carboxylic acid methyl-(6-methyl-pyridin-2-ylmethyl)-amide] |  | 76 to 77.5 °C | 
COc1cc2c(cc1OC)CN(C(=O)C13CC4CC(CC(C4)C1)C3)CC2 |  | 151 to 155 °C | 
Cc1c(C(=O)CSCc2ccc(Cl)cc2)sc2ccc(Cl)cc12 |  | 123 to 124 °C | 
CN(Cc1cccs1)C(=O)CS(=O)(=O)C12CC3CC(CC(C3)C1)C2 |  | 120 to 122 °C | 
O=S(=O)(NC12CC3CC(CC(C3)C1)C2)c1cc(Cl)ccc1Cl [STX1342, N-Adamantan-1-yl-2,5-dichloro-benzenesulfonamide] |  | 189 to 190 °C | 
Cc1c(Cl)cccc1S(=O)(=O)NC12CC3CC(CC(C3)C1)C2 [STX1343, N-Adamantan-1-yl-3-chloro-2-methyl-benzenesulfonamide] |  | 197.5 to 198 °C | 

Structure (SMILES) | inhibition at 10 µM [1] | melting point | other results
COC(=O)c1ccc(OCC(=O)C23CC4CC(CC(C4)C2)C3)cc1 |  | 128.7 °C | 
O=C(NCCc1cccs1)C12CC3CC(CC1C3)C2 [STX1656, Hexahydro-2,5-methano-pentalene-3a-carboxylic acid(2-thiophen-2-yl-ethyl)-amide] |  | 113 to 114 °C | 
Cn1ccnc1[S+]([O-])CC(=O)C12CC3CC(CC(C3)C1)C2 (centres unmarked) [STX1924, 1-Adamantan-1-yl-2-(1-methyl-1H-imidazole-2-sulfinyl)-ethanone] |  | 86 to 89 °C | 
Cc1cccc(NC(=O)CS(=O)(=O)C23CC4CC(CC(C4)C2)C3)n1 |  | 126 to 129 °C | 
O=C(CC12CC3CC(CC(C3)C1)C2)N1CCN(c2ccc(Cl)cc2)CC1 [STX2404, 2-Adamantan-1-yl-1-[4-(4-chloro-phenyl)-piperazin-1-yl]-ethanone] |  | 112.5 to 115 °C | 
O=C(NC12CC3CC(CC(C3)C1)C2)OCc1cccs1 [STX1711, Adamantan-1-yl-carbamic acid thiophen-2-ylmethyl ester] |  | 66 to 68 °C | 
CC(C)(C)CC(=O)NCc1cccs1 [STX1639, 3,3-Dimethyl-N-thiophen-2-ylmethyl-butyramide] |  | 83 to 84 °C | 
O=C(NCc1cccs1)C12CC3CC(CC(C3)C1)C2 [STX1374, Adamantane-1-carboxylic acid (thiophen-2-ylmethyl)-amide] |  | 155 to 155.5 °C | 
Cc1c(C(=O)CS(=O)(=O)Cc2ccc(Cl)cc2)sc2ccc(Cl)cc12 [STX2296, 1-(5-Chloro-3-methyl-benzo[b]thiophen-2-yl)-2-(4-chloro-phenylmethanesulfonyl)-ethanone] |  | 204.5 to 205.5 °C | 
O=C(C[S+]([O-])Cc1ccco1)C12CC3CC(CC(C3)C1)C2 (centres unmarked) [STX1908, 1-Adamantan-1-yl-2-(furan-2-ylmethanesulfinyl)-ethanone] |  | 75 to 79 °C | 
[O-][S+](Cc1cn(C23CC4CC(CC(C4)C2)C3)nn1)c1cc(Cl)ccc1Cl (centres unmarked) [STX1892, 1-Adamantan-1-yl-4-(2,5-dichloro-benzenesulfinylmethyl)-1H-[1,2,3]triazole] |  | 125 to 128 °C | 
COc1cc2c(cc1O)CCN(C(=O)CC13CC4CC(CC(C4)C1)C3)C2 |  | 169 to 172 °C | 
O=C(CSc1cccs1)C12CC3CC(CC(C3)C1)C2 [STX1902, 1-Adamantan-1-yl-2-(thiophen-2-ylsulfanyl)-ethanone] |  | 69 to 72 °C | 
O=C(CC12CC3CC(CC(C3)C1)C2)NCc1ccc(Cl)cc1 |  | 166 to 168 °C | 
CN(Cc1cc(Br)cs1)C(=O)CC12CC3CC(CC(C3)C1)C2 [STX2396, 2-Adamantan-1-yl-N-(4-bromo-thiophen-2-ylmethyl)-N-methyl-acetamide] |  | 86 to 88.5 °C | 
CCc1ccc(CN(C)C(=O)CC23CC4CC(CC(C4)C2)C3)s1 [STX2394, 2-Adamantan-1-yl-N-(5-ethyl-thiophen-2-ylmethyl)-N-methyl-acetamide] |  | 54 to 55 °C | 
CC(=O)Nc1ccc(S(=O)(=O)CC(=O)C23CC4CC(CC(C4)C2)C3)cc1 [STX2298, N-[4-(2-Adamantan-1-yl-2-oxo-ethanesulfonyl)-phenyl]-acetamide] |  | 151 to 151.5 °C | 
CN(CCc1cccs1)C(=O)C12CC3CC(CC(C3)C1)C2 [STX1910, Adamantane-1-carboxylic acid methyl-(2-thiophen-2-yl-ethyl)-amide] |  | 95 to 99 °C | 
CSc1ccc(CN(C)C(=O)C23CC4CC(CC(C4)C2)C3)s1 |  | 73 to 75.5 °C | 
O=C(CC12CC3CC(CC(C3)C1)C2)N1CCc2sccc2C1 |  | 121 to 125 °C | 
Cc1ccc(CN(C)C(=O)C23CC4CC(CC(C4)C2)C3)cc1 [STX2003, Adamantane-1-carboxylic acid methyl-(4-methyl-benzyl)-amide] |  | 93 to 95 °C | 
